From the NIST ThermoML archive (doi:10.1016/j.jct.2011.09.008)

Experiment: xn = mol fraction of the nth substance listed
Details: 101 kPa, Liquid, Sing-around technique in a fixed-path interferometer

CCCOCC(C)O (stereo not given) [1-propoxy-2-propanol] + O
speed of sound [m/s]
Details | 283.15 K | 288.15 K | 293.15 K | 298.15 K | 303.15 K
x1 = 0.00326 | 1470.7 | 1487.1 | 1501.5 | 1514.2 | 1527.5
x1 = 0.00845 | 1503.1 | 1516.8 | 1528.7 | 1538.8 | 1548.3
x1 = 0.01369 | 1533.3 | 1543.7 | 1552.5 | 1560.1 | 1565.5
x1 = 0.01942 | 1563.4 | 1570.1 | 1575.7 | 1579.2 | 1581.5
x1 = 0.02453 | 1582.6 | 1585.6 | 1586.9 | 1586.7 | 1585.7
x1 = 0.02855 | 1594.9 | 1594 | 1591.7 | 1587.7 | 1582.4
x1 = 0.03532 | 1598 | 1590.9 | 1583.2 | 1575.1 | 1566.6
x1 = 0.04675 | 1577.1 | 1566.9 | 1557 | 1547.1 | 1536.8
x1 = 0.06359 | 1545.3 | 1535.2 | 1524.6 | 1513.5 | 1501.6
x1 = 0.08224 | 1520.5 | 1509.6 | 1498.1 | 1486 | 1472.6
x1 = 0.09758 | 1504.9 | 1493.2 | 1481 | 1467.8 | 1454
x1 = 0.1185 | 1487.8 | 1475.4 | 1462.3 | 1448.6 | 1434
x1 = 0.145 | 1470.9 | 1457.6 | 1444 | 1429.6 | 1414.6
x1 = 0.1945 | 1447.2 | 1433.1 | 1418.6 | 1403.7 | 1388.4
x1 = 0.2213 | 1437.3 | 1422.4 | 1407.9 | 1392.7 | 1377.5
x1 = 0.2686 | 1422.1 | 1406.9 | 1391.7 | 1376 | 1360.6
x1 = 0.3432 | 1402.5 | 1386.5 | 1370.8 | 1354.5 | 1338.5
x1 = 0.4424 | 1381.2 | 1364.5 | 1347.8 | 1330.9 | 1314.2
x1 = 0.5415 | 1363 | 1345.7 | 1328.4 | 1311 | 1293.7
x1 = 0.6444 | 1346.5 | 1328.6 | 1310.8 | 1293 | 1275.3
x1 = 0.7056 | 1337.3 | 1319.3 | 1301.3 | 1283.3 | 1265.3
x1 = 0.7569 | 1330.3 | 1312 | 1293.9 | 1275.7 | 1257.7
x1 = 0.7951 | 1325.2 | 1306.9 | 1288.7 | 1270.4 | 1252.4
x1 = 0.8374 | 1320.2 | 1301.4 | 1283.2 | 1264.8 | 1246.5
x1 = 0.88 | 1314.6 | 1296.2 | 1277.8 | 1259.4 | 1240.9
x1 = 0.9193 | 1310.3 | 1291.7 | 1273.4 | 1254.8 | 1236.5
x1 = 0.9597 | 1306 | 1287.3 | 1268.9 | 1250.2 | 1231.7
x1 = 1 | 1301.9 | 1283.2 | 1264.5 | 1245.8 | 1227.3
